US20220332799A1, “HERV INHIBITORS FOR USE IN TREATING TAUOPATHIES” (Deutsches Zentrum Für Neurodegenerative Erkrankungen E.V. …, priority 2019, published 2022)
“Also recorded” adds a separate entry of the source. Like-named read-outs stand apart in the source and are kept apart here.

Columns and labels:
N2a NM-GFP^sol cells = assay type: cell-based, mouse; conditions: for percentage of recipient cells with NM-GFP aggregates: compounds added to cocultures 1 h after co-seeding, three concentrations, 12 h
[1] = tested on: HEK Tau-FusionRed^sol cells; experiment: Tau-FusionRed aggregate induction by coculture with T47D Tau-GFP^AD or Tau-GFP^FTLD donor cells; assay type: cell-based, human; conditions: T47D Tau-GFP^AD or Tau-GFP^FTLD donors pretreated one day with 10 μM, coculture 3 d in presence of drug; vs DMSO
Procedure: FIG. 4: Human endogenous retrovirus proteins potentiate intercellular Tau aggregate induction. • a. Workflow of Amprenavir treatment. […]. Two days later, these donor cells were incubated with 10 μM Amprenavir or solvent control DMSO for 1 d. Subsequently, donor cells with NM-GFP^agg, Tau-GFP^FTLD or Tau-GFP^AD aggregates were cocultured with recipient HEK NM-mCherry^sol or HEK Tau-FusionRed^sol cells, respectively, for 1 d (NM) or 3 d (Tau) in the presence of 10 μM Amprenavir or DMSO. • b. […] Percentage of recipient HEK NM-Cherry cells that harbor induced NM-mCherry aggregates. • c., d. […] Percentage of HEK Tau-FusionRed cells that harbor Tau-FusionRed^agg after coculture with T47D Tau-GFP^agg donor cell lines (n=6, ***, p<0.001; unpaired student t test).
To examine the effect of HERV-K proteins on Tau aggregate spreading, a T47D donor cell line stably expressing Tau-GFP^sol was generated. […]
The treatment of cells with Amprenavir (10 μM; Santa Cruz) and DMSO was performed for 72 h in EV-depleted medium in T175 flasks. Afterwards, the total numbers of viable cells and the viability upon drug treatment were determined using the Vi-VELL™ XR Cell Viability Analyzer (Beckman Coulter). […]

HERV-K = conditions: Tyagi et al., Retrovirology (2017), 14:21; cited from earlier work
[2] = tested on: HERV-W Env (Syncytin-1) mRNA; experiment: Quantitative real-time PCR of Syncytin-1 in MCF-7 cells; assay type: cell-based, human; conditions: MCF-7 Tau-GFPAD cells, 2 μM for 4 d; vs DMSO
Procedure: FIG. 14: Human endogenous retroviruses contribute to the spreading of protein aggregates. • a. Experimental workflow. A human breast cancer cell line MCF-7 (4) was engineered to stably express Tau-GFP and induced to propagate Tau aggregates by exposure to Alzheimer's disease brain homogenate (AD). A single cell clone was subsequently isolated and used in the experiment (MCF-7 Tau-GFPAD). This donor clone was treated with 2 μM 5-Aza-2-deoxycytidine (Aza) for 4 d to de-repress HERV expression. Pretreated donor cells were cocultured with HEK-Tau-FRsol cells. • b. […] Statistics: Unpaired Student's t-test (n=3). • c. Quantitative analysis of recipient cells with induced Tau-FR aggregates following coculture with DMSO-treated or Aza-treated donor cells. Statistics: Unpaired Student's t-test (n=6). • d. […] Recipients were subsequently cocultured with transduced donors that had been passaged at least 5 times post transduction. • e. shRNA-mediated downregulation of Syncytin-1 mRNA in MCF-7 Tau-GFPAD cells assessed by quantitative real-time PCR. […] Quantitative analysis of recipient cells with induced Tau-FR aggregates following coculture with donors with decreased HERV-W Syncytin-1 expression. […]
Total RNAs from cell pellets were isolated using the RNeasy Mini Kit or RNeasy Lipid Tissue Mini Kit (Qiagen). RNA concentration and quality were determined with Agilent 2100 Bioanalyzer System. […]

Row | Compound | percentage of recipient cells with NM-GFP aggregates (N2a NM-GFP^sol cells; vs DMSO) | percentage of recipient cells with NM-GFP aggregates (N2a NM-GFP^sol cells; vs DMSO, listed as amprenavir) | intercellular aggregate induction during coculture (N2a NM-GFP^sol cells; donor cells pre-treated with 10 μM for 3 days, coculture in the absence of drug, 16 h) | Tau aggregate induction in recipient cells [1] | effectiveness against HERV-K (HERV-K) | NM aggregate induction in recipient cells cocultured with pretreated donors (N2a NM-GFP^sol cells; s2E P1 donors pretreated, Aza 200 nM or Dec 100 nM, vs DMSO) | Syncytin-1 mRNA levels [2]
1 | CC(C)CN(C[C@@H](O)[C@H](Cc1ccccc1)NC(=O)O[C@H]1CCOC1)S(=O)(=O)c1ccc(N)cc1 [Amprenavir] | reduce aggregate induction; also recorded: observed only when donor cells were cotreated | reduced the percentage of recipient cells with NM-GFP aggregates | significantly inhibited intercellular aggregate induction during coculture | significant decrease in Tau aggregate induction in recipient cells; also recorded: impairs Tau-FusionRed aggregate induction | effective against HERV-K |  | 
2 | Nc1ncn([C@H]2C[C@H](O)[C@@H](CO)O2)c(=O)n1 [Decitabine, 5-aza-2′-deoxycytidine] |  |  |  |  |  | significantly increased NM aggregate induction in recipient cells | enhanced Syncytin-1 mRNA levels; also recorded: increased HERV-W Env (Syncytin-1) expression
